Experimental data published in US20250381180A1, “METHODS OF TREATING OR PREVENTING OVERACTIVE BLADDER SYNDROME” (Purdue Pharma L.P., priority 2022, published 2025).
Entries after “also recorded” stand apart in the source; their conditions may differ.

Columns and labels:
[1] = test system: conscious SCI rats; assay: Cystometric parameters in conscious spinal cord injury (SCI) rats; assay type: in vivo, rat
Protocol: Test substance effects were compared to those of the reference substance, the β3-adrenoceptor agonist mirabegron, marketed for overactive bladder.
• At W-5, spinal cord injury was performed at T8 level as described below. • Over W-5, rats were treated daily with gentamicin. • Over W-5 and W-4, bladder was emptied manually once a day. • From W-5 to W0, animals were weighed once per week. • At D-2 (W0), implantation of catheters was performed under isoflurane anaesthesia as described below. • At D0 (W0), cystometry was performed
Rats were anesthetized with isoflurane (3%). Body temperature was constantly maintained at 37° C. throughout the surgery by placing animals on a thermo-regulated hot plate. A laminectomy was performed and the spinal cord was sectioned with microscissors at T8 level. Care was taken to assure that the section was complete by verifying that a slight retraction of the two segments occurred. Then the muscle was sutured and the skin fixed with staples. The scar was cleaned by Vetedine. For the Sham group, the same surgery was performed without section of the spinal cord.
The urinary bladder was squeezed once a day for 14 days with a gentle massage of the abdomen until restoration of the micturition reflex. In addition, they were administered intramuscularly daily for one week with gentamicin (2 mg/mL, 0.2 ml/rat). Animals were euthanized if they reached humane endpoints: weight loss of greater than 20% of their body weight and/or abnormal behavioral changes indicating presence of pain and distress (prostration, self-mutilation, aggressiveness).
Rats were anesthetized with isoflurane (3%). Body temperature was constantly maintained at 37° C. throughout the surgery by placing animals on a thermo-regulated hot plate. A polyethylene catheter (0.58 and 0.96 mm of inner and outer diameters, respectively) was implanted in the bladder through the dome for intravesical pressure recording. Another catheter (0.58 and 0.96 mm of inner and outer diameters, respectively) was implanted in the stomach for intra-gastric administration. Catheters were exteriorized at the scapular level. After surgery, each rat was housed individually up to the end of the protocol with free access to food and water.
Animals were held under partial restraint in a restraining device. Saline was infused into the bladder at a constant flow rate of 2 or 6 mL/h for sham or SCI rats, respectively. After at least 45 min (3 complete micturition cycles corresponding to basal values), test substances were administered by intra-gastric route. Then, intravesical pressure was recorded for 90 min.
The following cystometric parameters were analyzed (see FIG. 10): • Amplitude of micturition (AM, mmHg). • Threshold pressure (ThP, mmHg). • Intercontraction interval (ICI, sec): time between basal pressure and ThP. ICI was not presented due to different infusion rate in sham and SCI rats. ICI was only analyzed to calculate the bladder capacity. • Bladder capacity (BC, mL) BC=ICI×infusion rate. • Amplitude of non voiding contractions (NVC, mmHg) • Frequency of NVC (number per min).
For each cystometric parameter and for each time period, the comparisons were performed as described below: • Basal values of each cystometric parameter of Sham/Vehicle and SCI/Vehicle groups were compared using unpaired student t test • Basal values of each cystometric parameter of all SCI groups were compared using one-way ANOVA or Kruskal-Wallis test • The 3 interval periods of 30 min post treatment of each cystometric parameter within the same group were compared to corresponding basal values using one-way ANOVA with repeated measures or Friedman test followed by Dunnett's or Dunn's post-test, respectively. • The 3 interval periods of 30 min post treatment of each cystometric parameter were compared between all SCI groups using one-way ANOVA or Kruskal Wallis test followed by Holm-Sidak's or Dunn's post-test versus Vehicle, respectively.

[2] = Phase 1 single-dose pharmacokinetics, mild renal impairment vs normal renal function; assay type: in vivo, human; conditions: single oral 1.0-mg immediate-release tablet
Protocol: This was a phase 1, nonrandomized, open-label, parallel-group, single-dose study. A total of 20 subjects (10 subjects with mild renal impairment and 10 healthy subjects with normal renal function) were studied.
At screening, subjects were assigned to a study group according to estimated glomerular filtration rate (eGFR), calculated using the 2021 Chronic Kidney Disease Collaboration (CKD-EPI 2021) formula as follows, in Table 11: […]
Subjects remained fasted for 4 hours after study drug dosing (except diabetic subjects, who were allowed a light breakfast at 2 hours after study drug dosing as judged by the investigator). Except as part of study drug administration, subjects restricted their consumption of water for 2 hours before dosing and for 2 hours after dosing. At all other times during the study, subjects were able to consume water ad libitum.

[3] = Urine concentrations in humans after a single oral dose; assay type: in vivo, human; conditions: LLOQ 229 nM
[4] = i.g., Cpd (IA) 30 mg/kg, mirabegron 10 mg/kg

O=C(O)c1nc2ccccc2n([C@H]2C[C@H]3CCC[C@@H](C2)N3C2CC3CCCC(C3)C2)c1=O (some centres unmarked) [Cpd (IA)]
% of variation from basal values of BC ([1]; Cpd (IA) 30 mg/kg i.g., 0-30 min interval, mean±s.e.m., vehicle −0.4±15): −35±7% | AM (amplitude of micturition), effect versus basal [1, 4]: did not significantly modify | AM (mmHg and % variation), effect versus vehicle [1, 4]: not significantly modified | BC expressed in % variation from basal, effect versus vehicle [1, 4]: significantly decreased BC for the 0-30 min post-administration interval period; also recorded: significantly reduced BC, compared to vehicle, for the 0-30 min post-administration interval period | BC expressed in mL, effect versus vehicle [1, 4]: no significant difference | NVC amplitude (mmHg or % variation), effect versus vehicle [1, 4]: not significantly modified | NVC amplitude, effect versus basal [1, 4]: significantly decreased NVC amplitude for the 30-60 and 60-90 min post-administration interval periods | NVC frequency (NVC/min and % variation), effect versus vehicle [1, 4]: not significantly modified | NVC frequency, effect versus basal [1, 4]: significantly decreased NVC frequency for the 0-30 and 60-90 min interval periods | ThP (mmHg and % variation), effect versus vehicle [1, 4]: not significantly modified | ThP (threshold pressure), effect versus basal [1, 4]: no significant effect | BC (bladder capacity), effect versus basal ([1]; i.g., Cpd (IA) 30 mg/kg, mirabegron 10 mg/kg, 30-min interval periods to 90 min): significantly decreased BC for the 0-30 and 30-60 min post-administration interval periods | NVC frequency, effect versus basal ([1]; i.g., Cpd (IA) 30 mg/kg, mirabegron 10 mg/kg, listed as compound of formula (IA)): significantly decreased NVC frequency compared to basal value for the 0-30 and 60-90 min post-administration interval periods | plasma concentrations at 72 and 96 hours ([2]; all subjects): all below the limit of quantitation | plasma concentrations over time, mild renal impairment versus normal renal function ([2]; n=10 per group): comparable | Urine Conc., mean ([3]; single oral dose 0.2 mg, 16 to 24 h): BCL | Urine Conc., mean ([3]; single oral dose 0.2 mg, 24 to 32 h): BCL | Urine Conc., mean ([3]; single oral dose 0.2 mg, 32 to 40 h): BCL | Urine Conc., mean ([3]; single oral dose 0.2 mg, 40 to 48 h): BCL | Urine Conc., mean ([3]; single oral dose 0.6 mg, 16 to 24 h): BCL | Urine Conc., mean ([3]; single oral dose 0.6 mg, 24 to 32 h): BCL | Urine Conc., mean ([3]; single oral dose 0.6 mg, 32 to 40 h): BCL | Urine Conc., mean ([3]; single oral dose 0.6 mg, 40 to 48 h): BCL | Urine Conc., mean ([3]; single oral dose 2 mg, 16 to 24 h): 409 nM | Urine Conc., mean ([3]; single oral dose 2 mg, 24 to 32 h): BCL | Urine Conc., mean ([3]; single oral dose 2 mg, 32 to 40 h): BCL | Urine Conc., mean ([3]; single oral dose 2 mg, 40 to 48 h): BCL | Urine Conc., mean ([3]; single oral dose 10 mg, 16 to 24 h): 1004 nM | Urine Conc., mean ([3]; single oral dose 10 mg, 40 to 48 h): BCL
